Assay [1] concerns the target T1, Amine oxidase [flavin-containing] B (Homo sapiens, UniProt P27338).
T1 sequence (P27338 whole entry): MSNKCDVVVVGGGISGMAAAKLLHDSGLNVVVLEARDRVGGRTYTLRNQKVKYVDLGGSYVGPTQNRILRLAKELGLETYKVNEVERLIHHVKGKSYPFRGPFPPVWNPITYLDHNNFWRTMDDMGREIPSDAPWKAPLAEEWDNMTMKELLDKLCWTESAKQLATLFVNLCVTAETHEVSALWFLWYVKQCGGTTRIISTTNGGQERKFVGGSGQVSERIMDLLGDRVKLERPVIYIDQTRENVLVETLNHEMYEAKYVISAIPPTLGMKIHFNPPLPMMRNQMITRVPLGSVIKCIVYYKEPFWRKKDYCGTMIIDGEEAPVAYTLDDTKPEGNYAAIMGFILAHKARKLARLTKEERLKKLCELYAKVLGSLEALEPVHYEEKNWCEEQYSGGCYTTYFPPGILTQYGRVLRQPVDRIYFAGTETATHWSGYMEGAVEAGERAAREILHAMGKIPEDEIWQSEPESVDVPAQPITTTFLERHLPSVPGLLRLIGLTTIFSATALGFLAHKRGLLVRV
The assay can be described thus: Inhibition of recombinant MAO-B (unknown origin) assessed as reduction in 4-hydroxyquinoline level using kynuramine as a substrate at 1 uM incubated for 20 mins by discontinuous fluorimetric assay relative to control. The settings on record: read-out: INH.

Assay [2] deals with T2, Amine oxidase [flavin-containing] A (Homo sapiens, UniProt P21397).
T2 sequence (P21397 whole entry): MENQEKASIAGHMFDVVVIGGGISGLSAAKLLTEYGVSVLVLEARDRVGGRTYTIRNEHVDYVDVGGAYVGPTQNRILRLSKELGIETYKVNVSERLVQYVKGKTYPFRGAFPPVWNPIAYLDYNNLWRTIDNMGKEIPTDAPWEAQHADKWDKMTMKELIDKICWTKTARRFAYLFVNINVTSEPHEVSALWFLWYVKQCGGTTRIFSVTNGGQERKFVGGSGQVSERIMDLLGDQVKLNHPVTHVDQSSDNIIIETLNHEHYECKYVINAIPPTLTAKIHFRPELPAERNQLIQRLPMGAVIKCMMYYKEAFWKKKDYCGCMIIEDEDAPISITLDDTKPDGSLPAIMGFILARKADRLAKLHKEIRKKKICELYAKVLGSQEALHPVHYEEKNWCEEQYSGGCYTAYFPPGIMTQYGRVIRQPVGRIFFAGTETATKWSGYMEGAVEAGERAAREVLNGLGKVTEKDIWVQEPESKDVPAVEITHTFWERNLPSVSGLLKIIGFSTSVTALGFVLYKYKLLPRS
As to the kind of experiment: Inhibition of recombinant MAO-A (unknown origin) assessed as reduction in 4-hydroxyquinoline level using kynuramine as a substrate at 1 uM incubated for 20 mins by discontinuous fluorimetric assay relative to control.

Assay [3] deals with T3, Cholinesterase (Equus caballus, UniProt P81908). The assay can be described thus: Inhibition of equine serum BuChE using S-butyrylthiocholine iodide as a substrate measured for 125 secs by DNTB reagent based Ellman's method. The class given is cell-free. For orientation: Ellman's reagent forms a yellow product with free thiols.
T3 sequence (P81908 whole entry): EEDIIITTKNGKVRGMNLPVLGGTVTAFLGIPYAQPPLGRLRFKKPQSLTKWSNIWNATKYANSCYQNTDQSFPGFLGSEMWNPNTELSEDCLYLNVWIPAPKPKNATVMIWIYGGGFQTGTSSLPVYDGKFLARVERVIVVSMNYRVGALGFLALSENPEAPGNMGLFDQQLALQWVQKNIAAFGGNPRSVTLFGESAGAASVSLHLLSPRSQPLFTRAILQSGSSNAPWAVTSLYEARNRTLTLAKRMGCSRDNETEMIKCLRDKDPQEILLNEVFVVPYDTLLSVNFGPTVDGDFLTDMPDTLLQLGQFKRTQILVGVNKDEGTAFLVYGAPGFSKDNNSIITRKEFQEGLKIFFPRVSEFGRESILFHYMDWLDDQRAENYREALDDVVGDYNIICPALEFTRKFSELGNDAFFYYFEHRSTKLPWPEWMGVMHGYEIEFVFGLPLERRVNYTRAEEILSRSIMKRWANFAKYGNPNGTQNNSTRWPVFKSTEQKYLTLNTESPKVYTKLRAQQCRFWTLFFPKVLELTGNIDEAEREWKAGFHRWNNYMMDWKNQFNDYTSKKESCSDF
Assay [4] addresses T4, Acetylcholinesterase (Electrophorus electricus, UniProt O42275). The assay can be described thus: Inhibition of electric eel AChE using […] as a substrate measured for 125 secs by DNTB reagent based Ellman's method.
For assay [5], the target named is T3, Cholinesterase. As to the kind of experiment: Mixed type inhibition of equine serum BuChE using S-butyrylthiocholine iodide as a substrate by Cornish-Bowden plot analysis. The class given is cell-free.
For assay [6], the target named is T4, Acetylcholinesterase. The assay can be described thus: Inhibition of electric eel AChE using […] as a substrate by Cornish-Bowden plot analysis.

Bounds are passed on as bounds.

T4 sequence (O42275 whole entry): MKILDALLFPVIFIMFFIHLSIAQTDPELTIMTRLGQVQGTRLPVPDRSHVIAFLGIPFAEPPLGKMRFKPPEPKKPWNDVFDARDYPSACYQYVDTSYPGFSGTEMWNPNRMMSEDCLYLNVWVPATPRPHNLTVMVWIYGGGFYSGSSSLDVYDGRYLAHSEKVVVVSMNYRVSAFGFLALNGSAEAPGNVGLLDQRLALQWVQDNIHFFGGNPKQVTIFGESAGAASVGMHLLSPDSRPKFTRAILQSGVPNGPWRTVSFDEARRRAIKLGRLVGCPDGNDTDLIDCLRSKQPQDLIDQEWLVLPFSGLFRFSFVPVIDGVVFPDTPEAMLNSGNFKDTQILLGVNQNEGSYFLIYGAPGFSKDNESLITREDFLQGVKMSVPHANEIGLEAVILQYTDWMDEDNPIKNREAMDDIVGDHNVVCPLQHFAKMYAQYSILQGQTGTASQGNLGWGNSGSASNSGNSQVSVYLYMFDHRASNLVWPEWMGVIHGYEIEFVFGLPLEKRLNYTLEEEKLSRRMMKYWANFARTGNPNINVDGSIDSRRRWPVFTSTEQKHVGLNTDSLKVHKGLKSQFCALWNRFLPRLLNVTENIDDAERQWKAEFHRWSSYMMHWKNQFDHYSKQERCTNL

With `C#CCN1C(=O)C(C(=O)NC(C)(C)C)(N2CCC2=O)c2ccccc21` (stereo not drawn), the inhibition at 1 µM in assay [1] came to 7.4%; in assay [2], 5.9%.
One may read the IC50 as the concentration needed to halve the response being measured. As for `Cc1cc(C)c2c(c1)C(C(=O)NC(C)(C)C)(N1CCC1=O)C(=O)N2` (stereo not drawn), the midpoint of inhibition in assay [3], the IC50, lay at 57 µM. This lies in the double-digit micromolar range.
Same read-out and setting: then `CC(C)(C)NC(=O)C1(N2CCC2=O)C(=O)Nc2ccccc21` (stereo not drawn), with > 100 µM; and `CC(C)(C)NC(=O)C1(N2CCC2=O)C(=O)Nc2c(C(F)(F)F)cccc21` (stereo not drawn), with > 100 µM.
Regarding `C#CCN1C(=O)C(C(=O)NCc2ccccc2)(N2CCC2=O)c2ccccc21` (stereo not drawn), the inhibition at 1 µM in assay [1] worked out at 7.6%; in assay [2] it was 8.9%. Also, the IC50 in assay [3] was > 100 µM.
One may read the Ki as a measure of affinity in units of concentration, obtained from inhibition or displacement. Low readings indicate tighter binding, high ones weaker binding. As for `CC(C)(C)CC(C)(C)NC(=O)C1(N2CCCC2=O)C(=O)Nc2ccccc21` (stereo not drawn), the half-maximal inhibitory concentration (IC50) was > 100 µM in assay [4] and 8.4 µM in assay [3]. Besides, the inhibitory constant (Ki) in assay [5] is 15 µM; in assay [6], 7.4 µM.
Regarding `CC(C)(C)NC(=O)C1(N2CCC2=O)C(=O)N(c2ccccc2)c2ccccc21` (stereo not drawn), in assay [3], the IC50 came out at 22 µM.
On the same count and under the same terms, then `O=C1CCCN1C1(C(=O)NC2CCCCC2)C(=O)Nc2ccccc21` (stereo not drawn), with 44 µM; and `O=C1CCCN1C1(C(=O)NCc2ccccc2)C(=O)Nc2ccccc21` (stereo not drawn), with 71 µM.
Take `CC(C)(C)NC(=O)C1(N2CCCC2=O)C(=O)Nc2ccc(I)cc21` (stereo not drawn): in assay [3], the IC50 was determined as 68 µM.
In assay [3], `CC(C)(C)NC(=O)C1(N2CCCC2=O)C(=O)N(Cc2ccccc2)c2ccccc21` (stereo not drawn) had an IC50 of 32 µM.
`Cc1cc(C)c2c(c1)C(C(=O)NC(C)(C)C)(N1CCCC1=O)C(=O)N2` (stereo not drawn): the 50% inhibitory concentration (IC50) in assay [3] was > 100 µM.
As to `CN1C(=O)C(C(=O)NC(C)(C)C)(N2CCCC2=O)c2ccccc21` (stereo not drawn), in assay [3], the 50% inhibitory concentration (IC50) was > 100 µM.
With `C[C@H](NCc1ccc(OCc2cccc(F)c2)cc1)C(N)=O` [SAFINAMIDE], in assay [2], the inhibition at 1 µM is -1.6%.
Regarding `CC(C)(C)NC(=O)C1(N2CCC2=O)C(=O)Nc2ccc([N+](=O)[O-])cc21` (stereo not drawn), in assay [3], the IC50 was > 100 µM.
Regarding `CC(C)(C)NC(=O)C1(N2CCCC2=O)C(=O)N(c2ccccc2)c2ccccc21` (stereo not drawn), the Ki in assay [5] stood at 18 µM; in assay [6], 6.1 µM. In addition, the IC50 in assay [3] was determined as 6.2 µM.
The compound `CC(C)(C)NC(=O)C1(N2CCCC2=O)C(=O)Nc2ccccc21` (stereo not drawn) returned an IC50 in assay [3] of 54 µM.
In assay [3], `CC(C)(C)NC(=O)C1(N2CCC2=O)C(=O)N(Cc2ccccc2)c2ccccc21` (stereo not drawn) gave a half-inhibitory concentration (IC50) of 51 µM.
For `CC(C)(C)CC(C)(C)NC(=O)C1(N2CCC2=O)C(=O)N(Cc2ccccc2)c2ccccc21` (stereo not drawn), the concentration for half-maximal inhibition (IC50) was > 100 µM in assay [4] and 1.8 µM in assay [3]. Besides, the inhibition constant Ki in assay [5] amounted to 4.8 µM; in assay [6], 1.8 µM.
In the case of `CC(C)(C)NC(=O)C1(N2CCCC2=O)C(=O)Nc2ccc([N+](=O)[O-])cc21` (stereo not drawn), the figures for the concentration for half-maximal inhibition (IC50) in assay [4] and in assay [3] were 45 µM and 94 µM, respectively.
The corresponding values for `O=C1CCN1C1(C(=O)NCc2ccccc2)C(=O)Nc2ccccc21` (stereo not drawn) are > 100 µM and > 100 µM.
For `C#CCN1C(=O)C(C(=O)NCc2ccccc2)(N2CCCC2=O)c2ccccc21` (stereo not drawn), the values for the inhibition at 1 µM in assay [1] and in assay [2] were 6.1% and 13.2%, respectively. Further, in assay [3], the IC50 was > 100 µM.
`CC(C)(C)NC(=O)C1(N2CCCC2=O)C(=O)Nc2ccc(Br)cc21` (stereo not drawn): the IC50 in assay [3] is > 100 µM.
Consider `CC(C)(C)NC(=O)C1(N2CCC2=O)C(=O)Nc2ccc(Br)cc21` (stereo not drawn), for which the IC50 in assay [3] was > 100 µM.
On the same count and under the same terms, then `CN1C(=O)C(C(=O)NC(C)(C)CC(C)(C)C)(N2CCCC2=O)c2ccccc21` (stereo not drawn), with 18 µM.
For `C#CCN(C)CCCOc1ccc(Cl)cc1Cl` [CLORGILINE], the inhibition at 1 µM in assay [2] is 100%.
`CC(C)(C)NC(=O)C1(N2CCC2=O)C(=O)Nc2ccc(I)cc21` (stereo not drawn) gave a 50% inhibitory concentration (IC50) in assay [3] of 80 µM.
`CC(C)(C)CC(C)(C)NC(=O)C1(N2CCC2=O)C(=O)Nc2ccccc21` (stereo not drawn) had a 50% inhibitory concentration (IC50) in assay [3] of 42 µM.

For the origin of these results see ChEMBL document CHEMBL4837266, “Ugi Reaction Synthesis of Oxindole-Lactam Hybrids as Selective Butyrylcholinesterase Inhibitors” (ACS Med Chem Lett, 2021).
